Data reported in patent US20220233444A1, “THIOESTER CATIONIC LIPIDS” (Translate Bio, Inc., priority 2019, published 2022).

System: BALB/c mice
Test: In vivo expression of hEPO after IM injection of LNP formulations in BALB/c mice
Conditions: lipid nanoparticles with hEPO mRNA, Cationic Lipid, DMG-PEG2000, Cholesterol and DOPE; single intramuscular injection into gastrocnemius muscle, 0.1 ug; male BALB/c mice; 6 hours post-dose; ELISA; FIG. 1
Experimental: FIG. 1 depicts in vivo protein production resulting from the delivery of mRNA using lipid nanoparticles comprising Compound 30 as described herein.
Lipid nanoparticle formulations comprising human erythropoietin (hEPO) mRNA, Cationic Lipid, DMG-PEG2000, Cholesterol and DOPE were administered intramuscularly to study mRNA delivery and resultant hEPO expression. Male BALB/c mice at 6-8 weeks old are given a single injection of the LNP formulations into the gastrocnemius muscle at a dosage level of 0.1 ug. Blood samples were collected at 6 hours post-dose, hEPO protein expression levels were measured in the sera samples by ELISA and presented in FIG. 1.

CCCCCCCCCCC(O)CN(CCCC(=O)SCCCCSC(=O)CCCN(CC(O)CCCCCCCCCC)CC(O)CCCCCCCCCC)CC(O)CCCCCCCCCC (stereo not shown) [Compound 30]
hEPO protein expression levels in sera (in vivo protein production): high levels of in vivo protein production
